Measurements as given in ChEMBL document CHEMBL1201862, “PubChem BioAssay data set” (2004).
Calls of active or inactive are those of the source.

Key:
[1] = biological target: T1, DNA repair and recombination protein RAD54-like (Homo sapiens, UniProt Q92698); assay: RAD54 Holliday junction migration blockers – biochemical, fluorescence, cherry-picked samples, dose series, confirmation (AID 651657); type: functional
T1 sequence (Q92698 whole entry): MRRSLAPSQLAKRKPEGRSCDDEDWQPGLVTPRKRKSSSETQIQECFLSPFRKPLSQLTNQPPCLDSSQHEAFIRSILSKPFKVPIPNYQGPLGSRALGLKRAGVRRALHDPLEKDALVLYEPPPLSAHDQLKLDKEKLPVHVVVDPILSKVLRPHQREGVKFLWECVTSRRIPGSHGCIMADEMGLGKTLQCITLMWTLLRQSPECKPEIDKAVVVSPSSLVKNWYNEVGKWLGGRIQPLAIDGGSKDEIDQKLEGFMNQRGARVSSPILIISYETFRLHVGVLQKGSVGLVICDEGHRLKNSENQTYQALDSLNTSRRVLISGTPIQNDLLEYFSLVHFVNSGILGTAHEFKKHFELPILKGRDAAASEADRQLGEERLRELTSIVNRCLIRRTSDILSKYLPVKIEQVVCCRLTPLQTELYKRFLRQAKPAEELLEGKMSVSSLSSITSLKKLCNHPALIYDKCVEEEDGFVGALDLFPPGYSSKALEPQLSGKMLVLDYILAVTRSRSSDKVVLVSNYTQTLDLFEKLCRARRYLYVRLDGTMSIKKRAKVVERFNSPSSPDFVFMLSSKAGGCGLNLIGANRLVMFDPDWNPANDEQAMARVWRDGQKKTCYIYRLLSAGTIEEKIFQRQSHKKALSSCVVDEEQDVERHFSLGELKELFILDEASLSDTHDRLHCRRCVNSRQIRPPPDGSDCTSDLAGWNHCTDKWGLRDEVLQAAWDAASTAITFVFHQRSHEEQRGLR

[2] = Counterscreen for activators of the function of SWI/SNF related, matrix associated, actin dependent regulator of chromatin, subfamily a, member 2 (SMARCA2, BRM): Luminescence-based cell-based high throughput dose response assay to identify non-selective compounds using the VP16 reporter assay.; type: functional
[3] = system: A-375; assay: proliferation inhibition in MITF-low A375 cells – cell-based, cherry-pick samples, set 2, counter-screen for MITF modulator project, dose response (AID 540335); type: functional; details: Homo sapiens
[4] = cells; type: functional
[5] = biological target: T2, Ubiquitin-conjugating enzyme E2 N (Homo sapiens, UniProt P61088); type: functional;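 note: Dose-response confirmation in a TR-FRET assay detecting UBC13-driven polyubiquitin chain formation, inhibition measured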
T2 sequence (P61088 whole entry): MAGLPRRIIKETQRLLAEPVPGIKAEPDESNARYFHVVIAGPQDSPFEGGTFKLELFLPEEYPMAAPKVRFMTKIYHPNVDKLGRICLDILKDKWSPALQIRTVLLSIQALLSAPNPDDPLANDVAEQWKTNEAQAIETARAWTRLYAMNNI

[6] = cytotoxicity toward MDA-MB-231 breast cancer cells – cell-based, CellTiter-Glo luminescence, cherry-pick, cytotoxicity control for RAD54 inhibitor project, dose response (AID 651692); type: functional
[7] = biological target: T3, Microphthalmia-associated transcription factor (Homo sapiens, UniProt O75030); assay: reducers of TRPM1 reporter luminescence, concentration series – cell-based, SK-MEL-5, cherry-picked, set 3, MITF inhibitor project, dose response (AID 493073); type: functional;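 note: SK-MEL-5 melanoma cells with luciferase driven by the MITF target TRPM1 promoter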
T3 sequence (O75030 whole entry): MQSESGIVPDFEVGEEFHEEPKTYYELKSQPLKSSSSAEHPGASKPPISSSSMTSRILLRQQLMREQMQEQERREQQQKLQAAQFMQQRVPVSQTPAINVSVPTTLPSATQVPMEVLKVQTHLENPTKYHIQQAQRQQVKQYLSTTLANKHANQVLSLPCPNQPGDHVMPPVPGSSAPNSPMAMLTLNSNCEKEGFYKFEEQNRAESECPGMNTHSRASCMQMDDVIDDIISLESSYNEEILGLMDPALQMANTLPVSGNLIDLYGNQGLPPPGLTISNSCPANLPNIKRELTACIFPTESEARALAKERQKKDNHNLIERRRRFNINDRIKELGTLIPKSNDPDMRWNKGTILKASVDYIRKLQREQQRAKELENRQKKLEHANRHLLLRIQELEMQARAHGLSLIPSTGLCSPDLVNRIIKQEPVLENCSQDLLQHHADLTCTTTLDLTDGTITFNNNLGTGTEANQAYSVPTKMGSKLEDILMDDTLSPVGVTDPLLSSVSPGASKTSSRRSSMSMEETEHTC

[8] = biological target: SWI/SNF-related matrix-associated actin-dependent regulator of chromatin subfamily A member 2 (Homo sapiens, UniProt P51531); assay: Luminescence-based cell-based high throughput dose response assay to identify activators of the function of SWI/SNF related, matrix associated, actin dependent regulator of chromatin, subfamily a, member 2 (SMARCA2, BRM).; type: functional
SWI/SNF-related matrix-associated actin-dependent regulator of chromatin subfamily A member 2, sequence (P51531 whole entry): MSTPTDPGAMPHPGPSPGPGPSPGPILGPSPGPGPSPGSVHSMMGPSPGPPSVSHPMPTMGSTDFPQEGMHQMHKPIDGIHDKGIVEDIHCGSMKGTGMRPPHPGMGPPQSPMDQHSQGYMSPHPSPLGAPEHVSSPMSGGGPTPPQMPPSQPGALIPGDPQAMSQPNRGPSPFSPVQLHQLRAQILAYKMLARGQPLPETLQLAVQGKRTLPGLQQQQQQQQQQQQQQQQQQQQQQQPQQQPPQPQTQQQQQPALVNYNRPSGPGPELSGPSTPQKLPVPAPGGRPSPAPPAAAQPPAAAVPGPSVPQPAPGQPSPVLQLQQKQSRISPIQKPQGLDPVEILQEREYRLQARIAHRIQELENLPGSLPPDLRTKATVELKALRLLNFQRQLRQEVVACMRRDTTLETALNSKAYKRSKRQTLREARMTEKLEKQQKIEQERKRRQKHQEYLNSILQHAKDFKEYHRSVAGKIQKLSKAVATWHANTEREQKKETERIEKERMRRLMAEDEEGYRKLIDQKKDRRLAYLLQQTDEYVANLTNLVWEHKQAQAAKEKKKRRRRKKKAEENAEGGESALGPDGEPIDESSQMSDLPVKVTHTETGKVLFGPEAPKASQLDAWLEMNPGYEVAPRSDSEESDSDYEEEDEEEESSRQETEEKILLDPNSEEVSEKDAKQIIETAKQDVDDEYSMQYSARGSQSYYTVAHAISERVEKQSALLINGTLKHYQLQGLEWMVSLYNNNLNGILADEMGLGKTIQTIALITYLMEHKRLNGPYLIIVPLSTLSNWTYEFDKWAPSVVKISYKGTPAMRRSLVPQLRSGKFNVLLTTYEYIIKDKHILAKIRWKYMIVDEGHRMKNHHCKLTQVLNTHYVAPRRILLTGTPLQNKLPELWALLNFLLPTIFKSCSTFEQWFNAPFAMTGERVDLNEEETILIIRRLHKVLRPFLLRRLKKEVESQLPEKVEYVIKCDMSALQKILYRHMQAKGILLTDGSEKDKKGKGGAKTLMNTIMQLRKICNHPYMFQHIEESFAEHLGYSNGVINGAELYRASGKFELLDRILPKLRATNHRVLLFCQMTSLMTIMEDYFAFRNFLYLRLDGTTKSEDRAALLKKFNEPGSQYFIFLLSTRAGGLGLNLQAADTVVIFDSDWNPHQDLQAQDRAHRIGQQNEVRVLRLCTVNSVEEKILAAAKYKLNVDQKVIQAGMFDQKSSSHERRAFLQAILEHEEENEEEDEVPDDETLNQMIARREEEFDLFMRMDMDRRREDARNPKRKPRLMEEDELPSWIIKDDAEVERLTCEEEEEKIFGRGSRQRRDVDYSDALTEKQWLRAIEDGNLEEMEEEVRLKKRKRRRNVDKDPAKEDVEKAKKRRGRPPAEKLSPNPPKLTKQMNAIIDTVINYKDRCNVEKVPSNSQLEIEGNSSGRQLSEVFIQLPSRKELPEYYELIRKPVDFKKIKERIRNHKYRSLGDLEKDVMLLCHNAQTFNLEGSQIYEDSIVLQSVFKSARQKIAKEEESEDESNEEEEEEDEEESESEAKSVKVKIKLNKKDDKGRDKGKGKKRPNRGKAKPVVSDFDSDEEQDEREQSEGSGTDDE

[9] = Vero E6 cell cytotoxicity, dose response, cytotoxicity control for non-replicating M. tuberculosis project, secondary assay (AID 492998); type: functional, VeroE6; details: Vero C1008
[10] = THP-1 cell cytotoxicity, dose response, cytotoxicity control for non-replicating M. tuberculosis project (AID 489025); type: functional
[11] = HepG2 cell cytotoxicity, dose response, cytotoxicity control for non-replicating M. tuberculosis project (AID 489018); type: functional; details: Mycobacterium tuberculosis
[12] = biological target: DNA dC->dU-editing enzyme APOBEC-3A (Homo sapiens, UniProt P31941); assay: Dose Response confirmation of small molecule APOBEC3A DNA Deaminase Inhibitors via a fluorescence-based single-stranded DNA deaminase assay. [Related pubchem assays (depositor defined):AID493011, AID493024]; type: functional
DNA dC->dU-editing enzyme APOBEC-3A, sequence (P31941 whole entry): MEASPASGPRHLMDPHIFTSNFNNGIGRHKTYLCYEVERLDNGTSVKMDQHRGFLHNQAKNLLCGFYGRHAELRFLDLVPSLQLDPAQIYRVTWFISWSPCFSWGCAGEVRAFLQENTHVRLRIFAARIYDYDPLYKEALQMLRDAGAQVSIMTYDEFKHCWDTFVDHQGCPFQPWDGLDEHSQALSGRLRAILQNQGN

[13] = biological target: DNA dC->dU-editing enzyme APOBEC-3G (Homo sapiens, UniProt Q9HC16); type: functional;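 note: Dose-response counterscreen measuring inhibition of APOBEC3G DNA deaminase activity, run while confirming APOBEC3A inhibitors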
DNA dC->dU-editing enzyme APOBEC-3G, sequence (Q9HC16 whole entry): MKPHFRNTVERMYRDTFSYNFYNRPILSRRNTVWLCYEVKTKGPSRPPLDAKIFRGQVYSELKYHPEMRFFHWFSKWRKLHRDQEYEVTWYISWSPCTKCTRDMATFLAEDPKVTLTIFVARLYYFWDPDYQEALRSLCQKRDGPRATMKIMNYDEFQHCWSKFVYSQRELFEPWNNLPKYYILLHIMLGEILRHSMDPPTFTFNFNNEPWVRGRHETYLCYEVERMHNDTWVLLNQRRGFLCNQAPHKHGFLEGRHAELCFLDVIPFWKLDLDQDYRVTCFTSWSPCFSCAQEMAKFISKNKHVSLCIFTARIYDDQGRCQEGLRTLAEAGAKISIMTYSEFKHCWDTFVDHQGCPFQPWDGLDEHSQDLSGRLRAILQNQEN

[14] = biological target: T4, Orexin/Hypocretin receptor type 1 (Homo sapiens, UniProt O43613); assay: (§1) Fluorescence-based cell-based high throughput dose response assay for antagonists of the orexin 1 receptor (OX1R; HCRTR1). [Related pubchem assays (depositor defined):AID434989, AID435008, AID463079, AID485270, AID492963, AID492964, AID492965, AID493232, AID504717, AID504718]; type: functional
T4 sequence (O43613 whole entry): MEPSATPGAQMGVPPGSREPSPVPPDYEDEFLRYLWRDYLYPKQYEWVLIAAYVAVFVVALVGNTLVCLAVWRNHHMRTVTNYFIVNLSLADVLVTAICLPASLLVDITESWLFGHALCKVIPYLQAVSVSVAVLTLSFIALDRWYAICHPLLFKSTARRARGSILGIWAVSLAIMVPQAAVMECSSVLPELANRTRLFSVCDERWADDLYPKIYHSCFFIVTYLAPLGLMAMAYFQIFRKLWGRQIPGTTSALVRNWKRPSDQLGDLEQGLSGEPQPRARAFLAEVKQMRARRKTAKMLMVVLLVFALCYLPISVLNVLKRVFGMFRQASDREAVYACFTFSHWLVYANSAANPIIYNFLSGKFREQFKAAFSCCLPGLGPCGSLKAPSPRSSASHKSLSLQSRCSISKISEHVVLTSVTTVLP

[15] = system: CHO-K1; assay: (§2) Counterscreen for antagonists of the orexin 1 receptor (OX1R; HCRTR1): Homogeneous time resolved fluorescence (HTRF)-based cell-based dose response assay to identify antagonists of the parental CHO-K1 cell line. [Related pubchem assays (depositor defined):AID434989, AID435008, AID463079, AID485270, AID492963, AID492964, AID492965, AID493232, AID504699, AID504701]; type: functional; details: Cricetulus griseus
[16] = biological target: T4, Orexin/Hypocretin receptor type 1; assay: as §1, with “Homogeneous Time Resolved Fluorescence (HTRF)-based” for “Fluorescence-based”; type: functional
[17] = as §2, with “Fluorescence-based” for “Homogeneous time resolved fluorescence (HTRF)-based”, “cell-based high throughput” for “cell-based”, “CHO” for “CHO-K1”; type: functional

SMILES: CCOC(=O)c1c(NC(C)=O)sc2c(OCC(O)CNC(C)(C)C)c(Br)ccc12 (configuration not stated)
- AC50 [1]: 8.96 µM (active)
- EC50 [2]: > 91.2 µM (inactive)
- AC50 [3]: 19.9 µM (active)
- IC50 [4]: 10.2 µM (active)
- IC50 [5]: > 20 µM (inactive)
- AC50 [6]: 21 µM (active)
- AC50 [7]: 7.72 µM (active)
- EC50 [8]: > 91.2 µM (inactive)
- CC50 [9]: 7.28 µM (active)
- CC50 [10]: 12.5 µM (active)
- CC50 [11]: 11.9 µM (active)

SMILES: O=[N+]([O-])c1ccccc1/C=N/NC1=NCCN1
- IC50 [12]: 5.96 µM (active)
- IC50 [13]: 6.95 µM (active)

SMILES: Cc1ccc(N(CC(=O)NCCc2ccc(Cl)cc2)S(=O)(=O)c2c(C)noc2C)cc1
- IC50 [14]: 2.87 µM (active)
- IC50 [15]: > 66.2 µM (inactive)
- IC50 [16]: 0.585 µM (active)
- IC50 [17]: > 49.8 µM (inactive)
